According to ChEMBL document CHEMBL1156950, “Synthesis and biological evaluation of 4-anilinoquinolines as potent inhibitors of epidermal growth factor receptor” (J Med Chem, 2010):
Activity calls are given as the source filed them. The calls are words filed in the database; no cut-off is given here.

Tests used:
cells [1] = conditions: Mus musculus, BaF3, 96 h
Description: Growth inhibition of mouse BA/F3 cells expressing EGFR Del1 and Thr790Met mutant after 96 hrs by cell titer-glo assay

cells [2] = conditions: Mus musculus, BaF3, 96 h; remark: listed apart in the source
Description: Growth inhibition of mouse BA/F3 cells expressing EGFR Del3 and Thr790Met mutant after 96 hrs by cell titer-glo assay

cells [3] = conditions: Mus musculus, BaF3, 96 h; remark: listed apart in the source
Description: Growth inhibition of mouse BA/F3 cells expressing EGFR Del1 mutant after 96 hrs by cell titer-glo assay

NCI-H1975 = experiment: Cytotoxicity against human NCI-H1975 cells expressing EGFR T790M and L858R mutant at 0.001 to 10 uM after 96 hrs by cell titer-glo assay; format: functional, cell-based
cells [4] = conditions: Mus musculus, BaF3, 96 h; remark: listed apart in the source
[5] = target: Epidermal growth factor receptor (Homo sapiens, UniProt P00533, L858R/T790M); experiment: Inhibition of EGFR Leu858Arg and Thr790Met mutant by HTRF assay; format: protein assay
Chain of Epidermal growth factor receptor (Homo sapiens, UniProt P00533, L858R/T790M) (P00533 25-1210 T790M/L858R limits assumed): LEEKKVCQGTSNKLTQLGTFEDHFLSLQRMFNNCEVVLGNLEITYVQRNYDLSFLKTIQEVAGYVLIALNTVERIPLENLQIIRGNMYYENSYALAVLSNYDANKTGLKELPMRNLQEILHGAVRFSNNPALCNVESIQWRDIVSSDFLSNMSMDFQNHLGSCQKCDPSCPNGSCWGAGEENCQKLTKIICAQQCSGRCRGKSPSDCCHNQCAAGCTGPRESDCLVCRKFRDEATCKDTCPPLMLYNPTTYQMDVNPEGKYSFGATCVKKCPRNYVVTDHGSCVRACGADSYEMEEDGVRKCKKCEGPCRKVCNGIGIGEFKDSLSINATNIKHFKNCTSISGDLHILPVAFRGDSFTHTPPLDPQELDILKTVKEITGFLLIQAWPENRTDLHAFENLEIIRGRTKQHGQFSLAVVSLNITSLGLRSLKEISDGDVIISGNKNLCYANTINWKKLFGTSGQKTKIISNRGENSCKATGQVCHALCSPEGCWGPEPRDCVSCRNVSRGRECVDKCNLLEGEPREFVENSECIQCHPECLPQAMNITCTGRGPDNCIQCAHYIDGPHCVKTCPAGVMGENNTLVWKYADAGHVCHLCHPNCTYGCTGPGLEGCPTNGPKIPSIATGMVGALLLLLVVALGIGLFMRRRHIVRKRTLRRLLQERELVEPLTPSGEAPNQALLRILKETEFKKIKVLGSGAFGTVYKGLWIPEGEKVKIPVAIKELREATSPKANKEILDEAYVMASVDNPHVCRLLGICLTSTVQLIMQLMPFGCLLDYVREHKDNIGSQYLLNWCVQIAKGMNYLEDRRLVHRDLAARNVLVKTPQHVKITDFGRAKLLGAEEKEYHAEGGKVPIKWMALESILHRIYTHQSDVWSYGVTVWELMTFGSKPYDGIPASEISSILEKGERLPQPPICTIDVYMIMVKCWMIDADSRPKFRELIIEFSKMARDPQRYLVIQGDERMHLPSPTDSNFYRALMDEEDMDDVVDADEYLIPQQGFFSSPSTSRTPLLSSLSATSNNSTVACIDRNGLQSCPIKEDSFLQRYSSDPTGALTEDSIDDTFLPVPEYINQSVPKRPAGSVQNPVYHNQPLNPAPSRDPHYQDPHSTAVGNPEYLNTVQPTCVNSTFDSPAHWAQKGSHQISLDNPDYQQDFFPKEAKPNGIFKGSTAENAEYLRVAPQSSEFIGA

[6] = target: Epidermal growth factor receptor (Homo sapiens, UniProt P00533, L858R); experiment: Inhibition of EGFR Leu858Arg mutant by HTRF assay; format: protein assay
Chain of Epidermal growth factor receptor (Homo sapiens, UniProt P00533, L858R) (P00533 25-1210 L858R limits assumed): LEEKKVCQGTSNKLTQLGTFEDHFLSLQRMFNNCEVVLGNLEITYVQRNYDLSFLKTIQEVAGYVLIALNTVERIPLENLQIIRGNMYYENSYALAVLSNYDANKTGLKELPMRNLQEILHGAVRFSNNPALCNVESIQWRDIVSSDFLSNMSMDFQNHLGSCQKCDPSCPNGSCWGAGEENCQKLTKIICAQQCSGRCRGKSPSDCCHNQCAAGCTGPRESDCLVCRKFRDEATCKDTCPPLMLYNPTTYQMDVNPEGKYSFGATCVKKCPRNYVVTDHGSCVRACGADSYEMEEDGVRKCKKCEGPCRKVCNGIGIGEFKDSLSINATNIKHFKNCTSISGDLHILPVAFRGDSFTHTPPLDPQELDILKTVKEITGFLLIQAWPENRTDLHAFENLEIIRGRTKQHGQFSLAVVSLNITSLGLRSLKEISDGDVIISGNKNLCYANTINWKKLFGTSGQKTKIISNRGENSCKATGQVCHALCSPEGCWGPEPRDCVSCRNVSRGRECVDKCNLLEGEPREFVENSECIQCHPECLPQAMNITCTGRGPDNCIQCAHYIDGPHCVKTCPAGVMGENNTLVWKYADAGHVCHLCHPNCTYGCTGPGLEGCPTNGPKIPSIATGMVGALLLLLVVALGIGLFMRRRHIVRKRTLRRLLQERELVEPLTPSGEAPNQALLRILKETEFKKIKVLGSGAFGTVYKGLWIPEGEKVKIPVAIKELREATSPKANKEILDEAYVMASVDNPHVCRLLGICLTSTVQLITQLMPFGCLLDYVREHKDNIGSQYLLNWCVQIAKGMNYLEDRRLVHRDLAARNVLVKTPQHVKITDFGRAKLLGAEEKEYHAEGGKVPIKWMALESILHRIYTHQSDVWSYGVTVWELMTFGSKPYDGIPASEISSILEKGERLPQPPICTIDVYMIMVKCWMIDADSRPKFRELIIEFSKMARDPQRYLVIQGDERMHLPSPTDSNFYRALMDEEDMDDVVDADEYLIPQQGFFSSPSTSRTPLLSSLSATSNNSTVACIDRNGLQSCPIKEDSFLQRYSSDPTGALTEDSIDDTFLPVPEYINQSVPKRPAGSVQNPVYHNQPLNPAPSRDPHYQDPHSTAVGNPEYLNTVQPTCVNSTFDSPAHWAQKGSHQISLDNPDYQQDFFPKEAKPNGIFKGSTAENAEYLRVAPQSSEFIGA

[7] = target: T1, Epidermal growth factor receptor (Homo sapiens, UniProt P00533); experiment: Inhibition of wild type EGFR by HTRF assay
T1 sequence (P00533 whole entry): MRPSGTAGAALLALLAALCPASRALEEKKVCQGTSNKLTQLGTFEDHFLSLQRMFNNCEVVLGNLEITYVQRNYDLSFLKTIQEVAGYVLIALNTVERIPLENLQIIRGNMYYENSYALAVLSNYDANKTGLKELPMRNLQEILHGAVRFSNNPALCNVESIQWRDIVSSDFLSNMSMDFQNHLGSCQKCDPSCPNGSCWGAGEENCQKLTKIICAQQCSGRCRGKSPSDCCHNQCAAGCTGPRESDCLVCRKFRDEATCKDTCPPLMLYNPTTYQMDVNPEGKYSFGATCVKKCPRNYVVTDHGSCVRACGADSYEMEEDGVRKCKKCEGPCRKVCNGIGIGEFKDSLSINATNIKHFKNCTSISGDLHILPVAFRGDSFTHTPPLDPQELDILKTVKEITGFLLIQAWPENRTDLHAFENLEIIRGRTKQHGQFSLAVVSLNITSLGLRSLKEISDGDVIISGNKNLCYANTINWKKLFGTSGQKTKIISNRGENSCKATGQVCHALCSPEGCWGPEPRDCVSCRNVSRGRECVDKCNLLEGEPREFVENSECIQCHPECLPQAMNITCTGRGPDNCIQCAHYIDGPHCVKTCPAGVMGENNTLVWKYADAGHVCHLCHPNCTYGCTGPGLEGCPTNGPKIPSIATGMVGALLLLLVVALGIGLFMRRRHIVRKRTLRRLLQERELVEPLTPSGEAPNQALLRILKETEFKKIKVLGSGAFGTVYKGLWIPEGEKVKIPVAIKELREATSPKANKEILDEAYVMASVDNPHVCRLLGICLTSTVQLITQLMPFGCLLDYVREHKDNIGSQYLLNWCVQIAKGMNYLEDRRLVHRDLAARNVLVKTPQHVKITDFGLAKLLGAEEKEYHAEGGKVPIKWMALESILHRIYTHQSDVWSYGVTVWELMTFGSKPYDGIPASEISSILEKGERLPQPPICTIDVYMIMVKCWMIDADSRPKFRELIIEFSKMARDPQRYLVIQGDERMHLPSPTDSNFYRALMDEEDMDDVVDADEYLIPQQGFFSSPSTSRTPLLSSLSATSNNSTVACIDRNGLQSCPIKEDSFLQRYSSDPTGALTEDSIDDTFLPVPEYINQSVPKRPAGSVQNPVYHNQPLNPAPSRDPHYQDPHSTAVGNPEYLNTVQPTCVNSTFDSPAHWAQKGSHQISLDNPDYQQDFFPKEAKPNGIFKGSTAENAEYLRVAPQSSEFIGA

cells [8] = conditions: Mus musculus, BaF3, 96 h; remark: listed apart in the source
Description: Growth inhibition of mouse BA/F3 cells expressing EGFR Del3 mutant after 96 hrs by cell titer-glo assay

PC-9 = experiment: Cytotoxicity against human PC9 cells expressing 746-750 sequence deleted EGFR assessed as cell viability at 0.001 to 10 uM after 96 hrs by cell titer-glo assay; format: functional, cell-based
cells [9] = conditions: Mus musculus, BaF3, 96 h; remark: listed apart in the source
Description: Growth inhibition of mouse BA/F3 cells expressing EGFR Del5 mutant after 96 hrs by cell titer-glo assay

[10] = target: T1, Epidermal growth factor receptor; experiment: Inhibition of 746-750 sequence deleted EGFR autophosphorylation in human PC9 cells after 24 hrs by immunoblotting; format: cell-based; conditions: PC-9
cells [11] = conditions: Mus musculus, BaF3, 96 h; remark: listed apart in the source
cells [12] = conditions: Mus musculus, BaF3, 96 h; remark: listed apart in the source
Description: Growth inhibition of mouse BA/F3 cells expressing EGFR Del5 and Thr790Met mutant after 96 hrs by cell titer-glo assay

IC50 [5]	IC50 [6]	IC50 [7]	Activity [10]	Compound	GI50 (cells [1])	GI50 (cells [2])	GI50 (cells [3])	Activity (NCI-H1975)	GI50 (cells [4])	GI50 (cells [8])	Activity (PC-9)	GI50 (cells [9])	GI50 (cells [11])	GI50 (cells [12])
3.2 nM	< 1 nM	< 1 nM	Dose-dependent effect	C=CC(=O)Nc1ccc2nccc(Nc3cccc(Br)c3)c2c1	> 500 nM	> 500 nM	< 500 nM	Active	> 500 nM	< 500 nM	Active	< 500 nM	< 500 nM	> 500 nM
1500 nM	14 nM	30 nM		C#Cc1cccc(Nc2ccnc3cc(OCCOC)c(OCCOC)cc23)c1	> 500 nM	> 500 nM	< 500 nM		> 500 nM	> 500 nM		> 5000 nM	< 500 nM	> 5000 nM
				CCC(=O)Nc1ccc2nccc(Nc3cccc(Br)c3)c2c1	> 500 nM	> 500 nM	< 500 nM		> 500 nM	< 500 nM		> 500 nM	> 500 nM	> 500 nM
				C#Cc1cccc(Nc2ncnc3cc(OCCOC)c(OCCOC)cc23)c1 [ERLOTINIB]	> 5000 nM	> 5000 nM	< 500 nM	Active	> 5000 nM	< 500 nM	Active	< 500 nM	< 500 nM	> 5000 nM
140 nM	< 1 nM	< 1 nM		C#Cc1cccc(Nc2ncnc3cc(OC)c(OC)cc23)c1	> 500 nM	> 5000 nM	< 500 nM		> 5000 nM	< 500 nM		< 500 nM	< 500 nM	> 5000 nM
				C=CC(=O)Nc1ccc2ncnc(Nc3cccc(Br)c3)c2c1	> 500 nM	< 500 nM	< 500 nM		< 500 nM	< 500 nM		< 500 nM	< 500 nM	< 500 nM
1500 nM	4 nM	19 nM		C#Cc1cccc(Nc2ccnc3cc(OC)c(OC)cc23)c1	> 5000 nM	> 5000 nM	< 500 nM		> 5000 nM	< 500 nM		< 500 nM	< 500 nM	> 5000 nM
